What was measured:
Epac2^Δ280,K405Q = biological target: T1, Epac2^Δ280,K405Q (Mus musculus, UniProt Q9EQZ6, K423Q); test: Epac activation assay, Epac2 K405Q mutant; type: biochemical
T1 construct: made in house
T1 sequence (Q9EQZ6 281-993 isoform Q9EQZ6-3 K405Q): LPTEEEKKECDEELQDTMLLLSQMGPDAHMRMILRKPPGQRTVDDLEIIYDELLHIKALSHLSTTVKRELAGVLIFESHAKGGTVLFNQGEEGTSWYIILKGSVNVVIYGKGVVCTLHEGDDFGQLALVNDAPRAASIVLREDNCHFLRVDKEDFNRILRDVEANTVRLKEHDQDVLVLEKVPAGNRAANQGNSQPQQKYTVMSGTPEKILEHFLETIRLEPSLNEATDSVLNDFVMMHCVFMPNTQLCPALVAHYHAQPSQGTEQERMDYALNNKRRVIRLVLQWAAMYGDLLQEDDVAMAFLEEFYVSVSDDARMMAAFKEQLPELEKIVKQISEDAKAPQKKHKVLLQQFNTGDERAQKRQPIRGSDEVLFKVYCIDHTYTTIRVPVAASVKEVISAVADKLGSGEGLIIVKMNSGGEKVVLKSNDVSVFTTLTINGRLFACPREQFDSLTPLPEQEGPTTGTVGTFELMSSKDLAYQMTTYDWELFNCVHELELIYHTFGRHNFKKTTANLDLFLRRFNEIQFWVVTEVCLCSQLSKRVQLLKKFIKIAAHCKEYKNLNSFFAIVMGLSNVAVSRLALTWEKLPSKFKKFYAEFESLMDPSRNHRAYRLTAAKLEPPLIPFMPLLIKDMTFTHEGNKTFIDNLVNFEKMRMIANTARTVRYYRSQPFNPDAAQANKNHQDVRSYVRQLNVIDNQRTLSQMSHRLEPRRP
Description: Murine Epac2 was used as all previous structural studies were performed with it.
The activity of Epac was determined by a fluorescence assay. […] The fluorescence intensity of Rap1B•mGDP is approximately twice that of free mGDP, and thus, nucleotide exchange can be observed as a decay in fluorescence upon the addition of excess unlabeled GDP.

Epac1^Q270K = biological target: T2, Epac1^Q270K (Homo sapiens, UniProt O95398, Q312K); test: Epac activation assay, Epac1 Q270K mutant; type: biochemical
T2 construct: made in house
T2 sequence (O95398 150-881 isoform O95398-3 Q270K): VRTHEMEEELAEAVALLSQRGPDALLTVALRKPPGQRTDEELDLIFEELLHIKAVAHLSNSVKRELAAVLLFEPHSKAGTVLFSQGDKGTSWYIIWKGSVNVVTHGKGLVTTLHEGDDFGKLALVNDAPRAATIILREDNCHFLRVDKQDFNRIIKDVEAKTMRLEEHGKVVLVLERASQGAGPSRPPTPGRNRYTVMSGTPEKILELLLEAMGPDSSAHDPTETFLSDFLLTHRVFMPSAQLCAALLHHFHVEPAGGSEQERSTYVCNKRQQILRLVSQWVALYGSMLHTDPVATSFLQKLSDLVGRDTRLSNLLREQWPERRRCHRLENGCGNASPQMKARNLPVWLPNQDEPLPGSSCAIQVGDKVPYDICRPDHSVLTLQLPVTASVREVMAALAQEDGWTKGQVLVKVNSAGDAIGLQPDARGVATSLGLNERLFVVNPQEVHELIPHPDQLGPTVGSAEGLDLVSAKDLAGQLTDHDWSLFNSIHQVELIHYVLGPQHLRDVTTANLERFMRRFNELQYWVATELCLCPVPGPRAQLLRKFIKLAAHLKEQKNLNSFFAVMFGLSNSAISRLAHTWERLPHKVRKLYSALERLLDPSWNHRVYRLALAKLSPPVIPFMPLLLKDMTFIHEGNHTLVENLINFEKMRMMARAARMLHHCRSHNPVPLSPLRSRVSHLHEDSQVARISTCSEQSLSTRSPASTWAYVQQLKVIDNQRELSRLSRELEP

## COC1C2OP(=O)(O)OCC2OC1n1c(Sc2ccc(Cl)cc2)nc2c(N)ncnc21 [D-007, 8-pCPT-2′-O-Me-cAMP, reference compound]
Epac2^Δ280,K405Q
  activation: efficiently activated
Epac1^Q270K
  activation: poorly activated

From publication PMC4300089, “Structure-Guided Design of Selective Epac1 and Epac2 Agonists” (PLoS Biology, 2015)
